# Patent publication US5270165A, “Method of diagnosis of amyloidoses” (The Reagents of the University of California, priority 1991, dated 1993)
# Test system: platelets
# Experiment: Secretion of PN-2/βAPP and granule markers from platelets after activation by agonists
# Format: cell-based
# Details: for PN-2/βAPP percent secreted / LDH loss (percent), marker of platelet lysis / ADP/ATP percent secreted / LA-PF4 percent secreted: collagen 20 μg/ml or thrombin 1 U/ml, 10 minutes; for fraction of total platelet PN-2/βAPP secreted on activation: freshly washed platelets
# Experimental: Secretion of PN-2/βAPP from platelets after activation by the agonists collagen or thrombin was studied. Briefly, fresh platelets washed by albumin density gradient centrifugation and gel filtration were incubated for 30 minutes at 37° C. in the absence or presence of the combined metabolic inhibitors antimycin A (15 μg/ml), 2-deoxy-D-glucose (30 mM), and D-gluconic acid δ-lactone (10 mM). The platelets were then placed into a cuvette 37° C. water bath with stirring at 1,200 rpm, and collagen (20 μg/ml or .varies.-thrombin (1 U/ml) was added. After 10 minutes, the samples were centrifuged at 12,000 x g for 4 minutes and supernatants were collected. Aliquots were removed and quantitated for PN-2/βAPP by incubation with ^125 I-EGF BP and analysis of complex formation by SDS-PAGE and autoradiography as in Example 15. Autoradiograms were aligned with dried gels; ^125 I-EGF BP:PN-2/βAPP complexes were located, excised and quantitated in a […]. Aliquots were also quantitated for platelet markers as follows: total adenine nucleotide (ADP/ATP) secretion was measured by the method of Homsen et al., Anal. Biochem., 46:489 (1972); low affinity platelet factor 4 (LA-PF4) secretion was quantitated by the method of Rucinski et al., Blood, 53:47 (1979); and cytosolic lactate dehydrogenase (LDH) loss was assessed by the procedure of Wroblewski and Ladue, Proc. Soc. Exper. Biol. Med., 77:389 (1978), the disclosures of which are hereby incorporated by reference. Values represent the percent secreted. Percent secreted was determined from the ratio of releasate in agonist treated sample to the total amount present in detergent lysate; nonstimulated platelet supernatants were subtracted from both. Values expressed are the mean ±SEM of three experiments, each consisting of combined platelets from two donors.
# [1] = Inhibitor-Treated Platelets (antimycin A, 2-deoxy-D-glucose, D-gluconic acid δ-lactone)
# [2] = Inhibitor-Treated Platelets, mean ±SEM
# [3] = Washed Platelets, 37° C., mean ±SEM of three experiments
Substance,PN-2/βAPP percent secreted [1] [%],"LDH loss (percent), marker of platelet lysis (Inhibitor-Treated Platelets) [%]",ADP/ATP percent secreted [2] [%],LA-PF4 percent secreted [2] [%],PN-2/βAPP percent secreted [3] [%],"ADP/ATP percent secreted (Washed Platelets, mean ±SEM) [%]","LA-PF4 percent secreted (Washed Platelets, mean ±SEM) [%]","LDH loss (percent), marker of platelet lysis (Washed Platelets, mean ±SEM) [%]",fraction of total platelet PN-2/βAPP secreted on activation
Collagen,0,0,1.3 ± 1.3,0,46.3 ± 7.7,45 ± 16,52 ± 11,1.3 ± 1.3,approximately one-half
Thrombin,0,–,0,0.4 ± 0.4,53.7 ± 7.6,68 ± 11,69 ± 6.2,0,approximately one-half
